From ChEMBL document CHEMBL2203200, “Synthesis and antitrypanosomal activity of new 6,6,7-trisubstituted thiopyrano[2,3-d][1,3]thiazoles” (Bioorg Med Chem Lett, 2012)
pIC50: −log10 of the molar value.

How the values were obtained:
[1] = system: Trypanosoma brucei brucei; assay: Antimicrobial activity against bloodstream forms of Trypanosoma brucei brucei 90-13 at 10 ug/ml after 72 hrs by resazurin assay; assay type: functional; details: 90-13, 72 h
[2] = system: Trypanosoma brucei brucei; assay: Antimicrobial activity against bloodstream forms of Trypanosoma brucei brucei 90-13 at 1 ug/ml after 72 hrs by resazurin assay; assay type: functional; details: 90-13, 72 h
[3] = system: Trypanosoma brucei gambiense; assay: Antimicrobial activity against bloodstream forms of Trypanosoma brucei gambiense Feo after 72 hrs by resazurin assay; assay type: functional, organism-based
[4] = system: Trypanosoma brucei brucei; assay: Antimicrobial activity against bloodstream forms of Trypanosoma brucei brucei 90-13 after 72 hrs by resazurin assay; assay type: functional, organism-based; details: 90-13, 72 h
[5] = system: Trypanosoma brucei gambiense; assay: Antimicrobial activity against bloodstream forms of Trypanosoma brucei gambiense Feo at 1 ug/ml after 72 hrs by resazurin assay; assay type: functional
[6] = system: Trypanosoma brucei gambiense; assay: Antimicrobial activity against bloodstream forms of Trypanosoma brucei gambiense Feo at 10 ug/ml after 72 hrs by resazurin assay; assay type: functional

With `COc1ccc([C@H]2c3sc(=O)[nH]c3SC[C@]23CC(=O)N(c2ccc(Cl)cc2)C3=O)cc1OC` (relative stereo) the inhibition at 10 µg/mL [1] was 93.6%, the inhibition at 1 µg/mL [2] was 82.4% and the pIC50 [3] was 6.37. The pIC50 [4] was 6.58.

`CCN(CC)c1ccc([C@H]2c3sc(=O)[nH]c3SC[C@]23CC(=O)N(c2ccc(Cl)cc2)C3=O)cc1` (relative stereo) was tested, and the inhibition at 10 µg/mL [1] was 98.2%, the inhibition at 1 µg/mL [2] was 21.1% and the pIC50 [3] was 5.44. The pIC50 [4] was 5.62.

`CN(C)c1ccc([C@H]2c3sc(=O)[nH]c3SC[C@]23CC(=O)N(c2ccc(Cl)cc2)C3=O)cc1` (relative stereo) was tested, and the inhibition at 10 µg/mL [1] was 98.2%, the inhibition at 1 µg/mL [2] was 36.8% and the pIC50 [3] was 5.83. The pIC50 [4] was 5.89.

For `O=C1C[C@]2(CSc3[nH]c(=O)sc3[C@@H]2c2ccccc2O)C(=O)N1c1ccc(Cl)cc1` (relative stereo), the inhibition at 1 µg/mL [5] was 0.9%, the inhibition at 10 µg/mL [6] was 19.3% and the inhibition at 10 µg/mL [1] was 11.5%. It also gave an inhibition at 1 µg/mL [2] of 13.4%.

For `O=C1C[C@]2(CSc3[nH]c(=O)sc3[C@@H]2c2ccccc2O)C(=O)N1c1ccc(O)cc1` (relative stereo), the inhibition at 1 µg/mL [5] was < 5%, the inhibition at 10 µg/mL [6] was 15.4% and the inhibition at 10 µg/mL [1] was 18.5%. For the same molecule, the inhibition at 1 µg/mL [2] was 7%.

In the case of `Cc1cccc(N2C(=O)C[C@]3(CSc4[nH]c(=O)sc4[C@@H]3c3ccccc3O)C2=O)c1` (relative stereo), the inhibition at 1 µg/mL [5] was < 5%, the inhibition at 10 µg/mL [6] was 15.3% and the inhibition at 10 µg/mL [1] was 24.5%. The inhibition at 1 µg/mL [2] was 5.5%.

In the case of `COc1cc([C@H]2c3sc(=O)[nH]c3SC[C@@]2(CC(=O)O)C(=O)O)ccc1OCc1ccccc1` (relative stereo), the inhibition at 10 µg/mL [1] was < 5% and the inhibition at 1 µg/mL [2] was 18.1%.

In the case of `COc1cc([C@H]2c3sc(=O)[nH]c3SC[C@@]2(CC(=O)O)C(=O)O)ccc1OC(F)F` (relative stereo), the inhibition at 10 µg/mL [1] was < 5% and the inhibition at 1 µg/mL [2] was 11.3%.

In the case of `CN(C)c1ccc([C@H]2c3sc(=O)[nH]c3SC[C@@]2(CC(=O)O)C(=O)O)cc1` (relative stereo), the inhibition at 10 µg/mL [1] was < 5% and the inhibition at 1 µg/mL [2] was 5.3%.

With `CCN(CC)c1ccc([C@H]2c3sc(=O)[nH]c3SC[C@@]2(CC(=O)O)C(=O)O)cc1` (relative stereo) the inhibition at 10 µg/mL [1] was 5.6% and the inhibition at 1 µg/mL [2] was < 5%.

`COc1ccc([C@H]2c3sc(=O)[nH]c3SC[C@]23CC(=O)N(c2ccc(Cl)cc2)C3=O)cc1` (relative stereo) was tested, and the inhibition at 1 µg/mL [5] was 2.3%, the inhibition at 10 µg/mL [6] was 9.8% and the inhibition at 10 µg/mL [1] was 13%. It also gave an inhibition at 1 µg/mL [2] of 10.6%.

`N=C(N)c1ccc(OCCCCCOc2ccc(C(=N)N)cc2)cc1` [PENTAMIDINE] gave a pIC50 [3] of 8.28 and a pIC50 [4] of 8.49.
